Test results taken from patent US8871280B1, “Compositions and methods for treating fungal activity in plants or soil” (The United States of America, as represented by the …, priority 2011, dated 2014).

Experiments:
Rhizoctonia solani [1] = test: Fungicidal vs fungistatic potential (regrowth of mycelial plugs on fresh PDA, 7 days); type: cell-based, Rhizoctonia solani AG-4, isolate Rs 23A
Procedure: The fungicidal and fungistatic potential of the PEs were determined by the method described by Garber and Houstan (Garber R. H., and B. R. Houston, Phytopathology, 49: 449-450 (1959)). In brief, three 5 mm diameter plugs were taken from the peripheral mycelial growth from each plate and placed in a fresh PDA plate. Following incubation at room temperature for 7 days, observations were recorded for new mycelial growth (fungistatic) or no mycelial growth (fungicidal). As control, peripheral mycelial plugs from soybean oil amended PDA plates were checked for fresh mycelial growth in fresh PDA plates.

Rhizoctonia solani [2] = test: Poison food technique (contact action), mycelial growth inhibition in PDA; type: cell-based, Rhizoctonia solani AG-4, isolate Rs 23A; details: for PoisonB1 % inhibition: poison bed experiment 1; for PoisonB2 % inhibition: poison bed experiment 2
Procedure: (§1) Fungal isolate and preparation of inoculum: Rhizoctonia solani AG-4, isolate Rs 23A is a highly virulent pathogenic isolate which infects many vegetables, ornamentals and turfgrasses (Lewis, J. A., and G. C. Papavizas, Soil Biology and Biochemistry, 9:195-201 (1987)). The fungus was grown in potato dextrose agar (PDA) plates and fungal plugs from the freshly growing mycelium were mixed with moist sterilized cracked wheat in a 2 L flask for 15 days in dark at 22° C. (Lakshman, D. K., et al., Proceedings of the National Academy of Science, USA, 95: 6425-6429 (1998)). The infested wheat was air dried in a sterile hood for 3 days, blended in a homogenizer and sieved through a mesh and stored at 2° C. before soil inoculation. A dose response of the inocula was carried out by thoroughly mixing using 0.25, 0.5, 0.75, 1.0, 1.25 and 1.50 g inoculums per Kg dry weight potting soil plus sterile water to maintain 25-30% moisture and incubating at room temperature for two weeks before sowing cucumber (cv muncher) seeds with the infested soil. The percent germination and post-emergence damping off of cucumber seedlings were recorded. The lowest inoculums dose that induced 100% postemergence damping off was estimated to be 1 to 1.25 g/Kg soil for inocula prepared over the span of the experiments. For soil fumigation with plant extracts (PEs), each time the minimum inoculum dose giving rise to 100% damping off was used.
In vitro bioassays: Two in vitro bioassay methods were used to investigate the mycelial growth inhibitory potentials of PEs. In the poison food technique, test chemical/plant extract was mixed at concentrations of 15, 30, 45, 60, 75, and 150 μl per 20 ml autoclaved PDA at 50° C., poured on three sterile disposable plastic plates (100×15 mm, Fisherbrand) at 20 ml/plate and cooled to room temperature to solidify (Dhingra, O.D., and J. B. Sinclair, 1995, Basic Plant Pathology Methods, 2nd Edition, Lewis Publishers, Boca Raton and London). […] Each plate was seeded in the center with a 5 mm diameter agar disk of the freshly grown Rhizoctonia pathogen, mycelial side facing the medium, and sealed with stretched Parafilm® M (Fisher Scientific). The plates were incubated in the dark at room temperature and when the pathogen reached to the edge of the plates in the control treatment (soybean oil), radial measurement of fungal growth in plates treated with PEs were recorded by taking three measurements from each plate. The experiment was repeated one more time. The percent mycelial growth inhibition (MGI) due to PE was calculated using the following formula: […] where dc=Avg. radial growth in mm of pathogen in control plate; dt=avg. radial growth in mm of pathogen in treated plate.

Rhizoctonia solani [3] = test: Filter disk fumigation method, mycelial growth inhibition on PDA; type: cell-based, Rhizoctonia solani AG-4, isolate Rs 23A; details: for Fumig1 % inhibition: fumigation experiment 1; for Fumig2 % inhibition: fumigation experiment 2
Procedure: as §1
In the second protocol, the chemical was kept not in direct contact with the fungus and we hypothesized that the plant extract will most likely influence the growth of the pathogen by fumigation action. In this approach, three sterile 15 mm filter paper (Whatman International Ltd, Maidstone, UK) disks were placed on the edge of each of three plates on the PDA. Each disk was impregnated in the center with various amounts (5-50 ul/disk) of the test solution/suspension. For negative control, only soybean oil was placed in the filter disk. […] The average radial growth was calculated and the experiment was repeated one more time. Percent growth inhibition was calculated as reported for poison bed assay.

Rhizoctonia solani [4] = test: Greenhouse suppression of damping off of cucumber seedlings in R. solani infested soil amended with plant extract; type: in vivo, Rhizoctonia solani AG-4, isolate Rs 23A; details: for % Disease suppression (+ PE + R. solani): cucumber damping off, soil amendment at 0.3% (v/w), four weeks after sowing
cucumber seeds = test: Greenhouse assay of seed germination and phytotoxicity, soil treated with plant extract alone; details: for % Seed germination (+ PE only) / Avg. seed germination (+ PE only): cucumber
Procedure: Soil treatment: For each treatment, 300 g of dry greenhouse soli (Pro-mix, Premier Horticulture LTD, Red Hill, Pa.) was thoroughly mixed with Rhizoctonia inoculum and incubated for 15 days as described above. […] The infested soil treated with only the carrier solution served as an untreated control. Following the treatment, the soil was thoroughly stirred to mix the contents and incubated in a double polythene bag closed tightly in the dark at room temperature for four days for fumigation to occur. Following the incubation, the bag was opened to allow as much PE to dissipate as possible. This was done by sprinkling the surface soil with sterile water every other day, and stirring the soil once every day for seven days. For assay of effect on seed germination and phytotoxicity of the plant extracts, soil was treated with plant extract formulations alone.
Greenhouse studies: Treated soil from each treatment was distributed to 4-inch plastic pots into which 12 seeds of cucumbers (95-100% germination) were sown and lightly watered to keep soil moist. The treatments were color coded and pots were randomized across treatment. All plants were kept in a greenhouse between 20° C. (night) to 26° C. (day) with 14 h of light. There were three pots per treatment in each experiment, and the experiment was repeated three times. As positive control, a broad spectrum popular soil fungicide Banrot® 40 WP (The Scotts Company, Ohio) was used following manufacturer's recommendation to control the disease. Total number of seedlings without any sign of damping off in each pot was recorded and percentage of disease suppression were calculated four weeks after sowing cucumber seeds.

[5] = in vivo, 0.3 % of PE in soil (3000 ppm)
[6] = 12 seeds sown per pot, soil amended with 0.3% PE, no pathogen
[7] = soil amended with 0.3% PE, no pathogen

SMILES	Effect (fumigation) (Rhizoctonia solani [1]; amount oil 15 μL/20 mL plate)	Effect (fumigation) (Rhizoctonia solani [1]; amount oil 30 μL/20 mL plate)	Effect (fumigation) (Rhizoctonia solani [1]; amount oil 45 μL/20 mL plate)	Effect (fumigation) (Rhizoctonia solani [1]; amount oil 60 μL/20 mL plate)	Effect (fumigation) (Rhizoctonia solani [1]; amount oil 75 μL/20 mL plate)	Effect (fumigation) (Rhizoctonia solani [1]; amount oil 150 μL/20 mL plate)	PoisonB1 % inhibition (Rhizoctonia solani [2]; amount oil 15 μL/20 mL plate) [%]	PoisonB2 % inhibition (Rhizoctonia solani [2]; amount oil 15 μL/20 mL plate) [%]	PoisonB1 % inhibition (Rhizoctonia solani [2]; amount oil 30 μL/20 mL plate) [%]	PoisonB2 % inhibition (Rhizoctonia solani [2]; amount oil 30 μL/20 mL plate) [%]	PoisonB1 % inhibition (Rhizoctonia solani [2]; amount oil 45 μL/20 mL plate) [%]	PoisonB2 % inhibition (Rhizoctonia solani [2]; amount oil 45 μL/20 mL plate) [%]	PoisonB1 % inhibition (Rhizoctonia solani [2]; amount oil 60 μL/20 mL plate) [%]	PoisonB2 % inhibition (Rhizoctonia solani [2]; amount oil 60 μL/20 mL plate) [%]	PoisonB1 % inhibition (Rhizoctonia solani [2]; amount oil 75 μL/20 mL plate) [%]	PoisonB2 % inhibition (Rhizoctonia solani [2]; amount oil 75 μL/20 mL plate) [%]	PoisonB1 % inhibition (Rhizoctonia solani [2]; amount oil 150 μL/20 mL plate) [%]	PoisonB2 % inhibition (Rhizoctonia solani [2]; amount oil 150 μL/20 mL plate) [%]	Fumig1 % inhibition (Rhizoctonia solani [3]; amount oil 15 μL/20 mL plate) [%]	Fumig2 % inhibition (Rhizoctonia solani [3]; amount oil 15 μL/20 mL plate) [%]	also measured
CC=Cc1ccc(OC)cc1 [Anethole]	S	S	S	S	S	S	100	100	100	100	100	100	100	100	100	100	100	100	99	90	Effect (poison bed, contact action) (Rhizoctonia solani [1]; amount oil 15 μL/20 mL plate): S; Effect (poison bed, contact action) (Rhizoctonia solani [1]; amount oil 30 μL/20 mL plate): S; Fungicidal vs fungistatic nature at higher concentrations (Rhizoctonia solani [1]; in vitro, higher concentrations): fungicidal; Inhibition of R. solani growth by contact (poison bed assay), in words (Rhizoctonia solani [2]; in vitro, PDA): potent inhibitors; Fumig2 % inhibition (Rhizoctonia solani [3]; amount oil 30 μL/20 mL plate): 85%; Fumig2 % inhibition (Rhizoctonia solani [3]; amount oil 45 μL/20 mL plate): 86%; Fumig2 % inhibition (Rhizoctonia solani [3]; amount oil 60 μL/20 mL plate): 89%; Fumig2 % inhibition (Rhizoctonia solani [3]; amount oil 75 μL/20 mL plate): 97%; Fumig2 % inhibition (Rhizoctonia solani [3]; amount oil 150 μL/20 mL plate): 102%; Inhibition of R. solani growth by fumigation action, in words (Rhizoctonia solani [3]; in vitro, filter disk): potent inhibitors; % Disease suppression (+ PE + R. solani) (Rhizoctonia solani [4]): 58.33%; Avg. seed Germination (+ PE + R. solani) (Rhizoctonia solani [4]; cucumber, 12 seeds sown per pot, infested soil amended with 0.3% PE): 7.00; % Seed germination (+ PE only) (cucumber seeds; [5]): 75.00%; Avg. seed germination (+ PE only) (cucumber seeds; [5]): 9.00
Cc1ccc(C(C)C)cc1O [Carvacrol]	S	S	S	S	S	S	100	100	100	100	100	100	100	100	100	100	100	100	88	87	Fumig1 % inhibition (Rhizoctonia solani [3]; amount oil 30 μL/20 mL plate): 94%; Fumig2 % inhibition (Rhizoctonia solani [3]; amount oil 30 μL/20 mL plate): 91%; Fumig1 % inhibition (Rhizoctonia solani [3]; amount oil 45 μL/20 mL plate): 100%; Fumig2 % inhibition (Rhizoctonia solani [3]; amount oil 45 μL/20 mL plate): 91%; Fumig1 % inhibition (Rhizoctonia solani [3]; amount oil 60 μL/20 mL plate): 100%; Fumig2 % inhibition (Rhizoctonia solani [3]; amount oil 60 μL/20 mL plate): 93%; Fumig1 % inhibition (Rhizoctonia solani [3]; amount oil 75 μL/20 mL plate): 99%; Fumig2 % inhibition (Rhizoctonia solani [3]; amount oil 75 μL/20 mL plate): 96%; Fumig1 % inhibition (Rhizoctonia solani [3]; amount oil 150 μL/20 mL plate): 100%; Fumig2 % inhibition (Rhizoctonia solani [3]; amount oil 150 μL/20 mL plate): 100%; % Disease suppression (+ PE + R. solani) (Rhizoctonia solani [4]): 47.25%; Avg. seed germination (+ PE only) (cucumber seeds; [6]): 4.00; % Seed germination (+ PE only) (cucumber seeds; [7]): 33.33%; Phytotoxicity (cucumber seed germination and seedling growth), in words (cucumber seeds; greenhouse, soil amendment): slightly inhibited
CC(C)=CCC/C(C)=C/CO [Geraniol]	S	S	S	S	S	S	100	100	100	100	100	100	100	100	100	100	100	100	51	15	Fumig1 % inhibition (Rhizoctonia solani [3]; amount oil 30 μL/20 mL plate): 56%; Fumig2 % inhibition (Rhizoctonia solani [3]; amount oil 30 μL/20 mL plate): 34%; Fumig1 % inhibition (Rhizoctonia solani [3]; amount oil 45 μL/20 mL plate): 62%; Fumig2 % inhibition (Rhizoctonia solani [3]; amount oil 45 μL/20 mL plate): 31%; Fumig1 % inhibition (Rhizoctonia solani [3]; amount oil 60 μL/20 mL plate): 66%; Fumig2 % inhibition (Rhizoctonia solani [3]; amount oil 60 μL/20 mL plate): 54%; Fumig1 % inhibition (Rhizoctonia solani [3]; amount oil 75 μL/20 mL plate): 73%; Fumig2 % inhibition (Rhizoctonia solani [3]; amount oil 75 μL/20 mL plate): 67%; Fumig1 % inhibition (Rhizoctonia solani [3]; amount oil 150 μL/20 mL plate): 77%; Fumig2 % inhibition (Rhizoctonia solani [3]; amount oil 150 μL/20 mL plate): 61%; % Disease suppression (+ PE + R. solani) (Rhizoctonia solani [4]): 77.75%; Avg. seed germination (+ PE only) (cucumber seeds; [6]): 11.33; % Seed germination (+ PE only) (cucumber seeds; [7]): 94.41%
